Experimental findings from patent publication EP4682145A1, “BENZOHETEROCYCLIC COMPOUND, AND PREPARATION METHOD THEREFOR AND USE THEREOF” (Cascade Pharmaceuticals, Inc., priority 2023, dated 2024) are described below.

This test deals with T1, human FFAR1 (GPR40) (Homo sapiens, UniProt O14842).
T1 construct: Flag; expressed in transfected cells; host or cells: HEK293T
Nature of the test: NFAT-RE-based reporter gene activity assay (Dual-Glo luciferase) for GPR40 agonistic activity in co-transfected HEK293T cells. Format: cell-based. The settings on record: 4-hour treatment; for Efficacy (%): class symbols. The gist of the method: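 Agonism read as NFAT-RE-driven firefly luciferase over Renilla control (Dual-Glo) after 4 h compound exposure, top concentration 1 µM, 10 half-log steps.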
A general note: In a reporter assay the amount or activity of a reporter protein is the signal.

T1 sequence (O14842 whole entry): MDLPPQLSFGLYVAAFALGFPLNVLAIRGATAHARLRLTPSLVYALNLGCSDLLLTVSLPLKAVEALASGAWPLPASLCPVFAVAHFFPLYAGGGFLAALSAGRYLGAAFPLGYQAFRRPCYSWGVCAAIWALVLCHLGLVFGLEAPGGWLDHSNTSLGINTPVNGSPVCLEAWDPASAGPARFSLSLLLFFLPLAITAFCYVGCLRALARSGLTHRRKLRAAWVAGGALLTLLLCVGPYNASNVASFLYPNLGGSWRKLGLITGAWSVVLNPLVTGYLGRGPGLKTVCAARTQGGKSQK

Broadly, the EC50 is the concentration needed to bring the measured effect to its halfway point. Read a low EC50 as an effect from little substance. As for `COc1ccc(F)c(N2CCC(c3oc4cc([C@@H](CC(=O)O)C5CC5)ccc4c3C(=O)Nc3cc(F)ccc3Br)CC2)c1` [Compound 342], the concentration for a half-maximal effect (EC50) is no more than 10 nM and the “Efficacy (%)” value was “†† (150 ≥ Efficacy (%) > 100)”.

In the case of `COc1ccc(F)c(N2CCC(c3oc4cc([C@@H](CC(=O)O)C5CC5)ccc4c3C(=O)Nc3cc(C)ccc3Cl)CC2)c1` [Compound 343], the EC50 was no more than 10 nM and the “Efficacy (%)” value is “††† (Efficacy (%) > 150)”.

Regarding `COc1cccc(N2CCC(c3oc4cc(C(CC(=O)O)C5CC5)ccc4c3C(=O)NC3CCCCC3)CC2)c1` (centres unmarked) [Compound 344], the EC50 is 100 to 500 nM and the “Efficacy (%)” value is recorded as “†† (150 ≥ Efficacy (%) > 100)”.

`COc1cccc(N2CCC(c3oc4cc(C(CC(=O)O)C5CC5)ccc4c3C(=O)NC34CC(C3)C4)CC2)c1` (centres unmarked) [Compound 345]: the 50% effective concentration (EC50) was 100 to 500 nM and the “Efficacy (%)” value is reported as “†† (150 ≥ Efficacy (%) > 100)”.

`COc1cccc(N2CCC(c3oc4cc(C(CC(=O)O)C5CC5)ccc4c3C(=O)NC3CCC(C)(C)CC3)CC2)c1` (centres unmarked) [Compound 348]: the EC50 is 100 to 500 nM and the “Efficacy (%)” value is on record as “†† (150 ≥ Efficacy (%) > 100)”.

As for `COc1cccc(N2CCC(c3oc4cc(C(CC(=O)O)C5CC5)ccc4c3C(=O)NC34CC5CC(CC(C5)C3)C4)CC2)c1` (centres unmarked) [Compound 349], the EC50 was in the range of 100 to 500 nM and the “Efficacy (%)” value was “†† (150 ≥ Efficacy (%) > 100)”.

In the case of `COc1cccc(N2CCC(c3oc4cc(C(CC(=O)O)C5CC5)ccc4c3C(=O)NC34CC5CC(C)(CC(C)(C5)C3)C4)CC2)c1` (centres unmarked) [Compound 351], the 50% effective concentration (EC50) lay in the range of 10 to 100 nM and the “Efficacy (%)” value is “†† (150 ≥ Efficacy (%) > 100)”.

`COc1cccc(N2CCC(c3oc4cc(C(CC(=O)O)C5CC5)ccc4c3C(=O)NC3C4CC5CC(C4)CC3C5)CC2)c1` (centres unmarked) [Compound 352]: the EC50 lay in the range of 10 to 100 nM and the “Efficacy (%)” value is recorded as “†† (150 ≥ Efficacy (%) > 100)”.

For the molecule `COc1cccc(N2CCC(c3oc4cc(C(CC(=O)O)C5CC5)ccc4c3C(=O)NC34CC5CC(CC(C)(C5)C3)C4)CC2)c1` (centres unmarked) [Compound 353], the concentration for a half-maximal effect (EC50) fell in the range of 100 to 500 nM and the “Efficacy (%)” value was “††† (Efficacy (%) > 150)”.

Take `COc1cccc(N2CCC(c3oc4cc([C@@H](CC(=O)O)C5CC5)ccc4c3C(=O)NC34CC5CC(C)(CC(C)(C5)C3)C4)CC2)c1` [Compound 354]: the EC50 was in the range of 100 to 500 nM and the “Efficacy (%)” value is on record as “†† (150 ≥ Efficacy (%) > 100)”.

For `COc1cccc(N2CCC(c3oc4cc(C(CC(=O)O)C5CC5)ccc4c3C(=O)NCc3ccccc3)CC2)c1` (centres unmarked) [Compound 355], the 50% effective concentration (EC50) lay in the range of 100 to 500 nM and the “Efficacy (%)” value is “†† (150 ≥ Efficacy (%) > 100)”.

`COc1cccc(N2CCC(c3oc4cc(C(CC(=O)O)C5CC5)ccc4c3C(=O)N3CCCC3)CC2)c1` (centres unmarked) [Compound 358]: the half-maximal effective concentration (EC50) is 100 to 500 nM and the “Efficacy (%)” value is listed as “† (100 ≥ Efficacy (%) > 50)”.

In the case of `COc1cccc(N2CCC(c3oc4cc(C(CC(=O)O)C5CC5)ccc4c3C(=O)N3CCCC3C)CC2)c1` (centres unmarked) [Compound 359], the EC50 was in the range of 100 to 500 nM and the “Efficacy (%)” value is given as “† (100 ≥ Efficacy (%) > 50)”.

In the case of `COc1cccc(N2CCC(c3oc4cc(C(CC(=O)O)C5CC5)ccc4c3C(=O)N3CC4(CCC4)C3)CC2)c1` (centres unmarked) [Compound 360], the concentration giving a half-maximal response (EC50) was greater than 500 nM and the “Efficacy (%)” value is on record as “††† (Efficacy (%) > 150)”.

Consider `COc1cccc(N2CCC(c3oc4cc([C@@H](CC(=O)O)C5CC5)ccc4c3/C=C/C(C)(C)C)CC2)c1` [Compound 361], for which the half-maximal effective concentration (EC50) fell in the range of 10 to 100 nM and the “Efficacy (%)” value is given as “†† (150 ≥ Efficacy (%) > 100)”.

Consider `COc1cccc(N2CCC(c3oc4cc(C(CC(=O)O)C5CC5)ccc4c3/C=C/C3CC3)CC2)c1` (centres unmarked) [Compound 364], for which the EC50 is 100 to 500 nM and the “Efficacy (%)” value is reported as “†† (150 ≥ Efficacy (%) > 100)”.

As to `COc1ccc(F)c(N2CCC(c3oc4cc(C(CC(=O)O)C5CC5)ccc4c3/C=C/C(C)(C)C)CC2)c1` (centres unmarked) [Compound 366], the EC50 lay within 10 to 100 nM and the “Efficacy (%)” value is “†† (150 ≥ Efficacy (%) > 100)”.

Turning to `COc1ccc(F)c(N2CCC(c3oc4cc([C@@H](CC(=O)O)C5CC5)ccc4c3/C=C/C(C)(C)C)CC2)c1` [Compound 367], the EC50 was no more than 10 nM and the “Efficacy (%)” value is recorded as “†† (150 ≥ Efficacy (%) > 100)”.

In the case of `COc1ccc(F)c(N2CCC(c3oc4cc(C(CC(=O)O)C5CC5)ccc4c3/C=C/C(C)(C)O)CC2)c1` (centres unmarked) [Compound 368], the 50% effective concentration (EC50) fell in the range of 100 to 500 nM and the “Efficacy (%)” value is reported as “††† (Efficacy (%) > 150)”.

Consider `COc1ccc(F)c(N2CCC(c3oc4cc([C@@H](CC(=O)O)C5CC5)ccc4c3/C=C/C(C)(C)O)CC2)c1` [Compound 369], for which the EC50 was in the range of 100 to 500 nM and the “Efficacy (%)” value is recorded as “† (100 ≥ Efficacy (%) > 50)”.

As for `COc1ccc(F)c(N2CCC(c3oc4cc(C(CC(=O)O)C5CC5)ccc4c3C=C(C)C)CC2)c1` (centres unmarked) [Compound 370], the half-maximal effective concentration (EC50) lay in the range of 100 to 500 nM and the “Efficacy (%)” value was “†† (150 ≥ Efficacy (%) > 100)”.

Turning to `COc1ccc(F)c(N2CCC(c3oc4cc(C(CC(=O)O)C5CC5)ccc4c3C/C=C/C(C)C)CC2)c1` (centres unmarked) [Compound 371], the EC50 was in the range of 100 to 500 nM and the “Efficacy (%)” value is reported as “†† (150 ≥ Efficacy (%) > 100)”.

In the case of `COc1ccc(F)c(N2CCC(c3oc4cc([C@@H](CC(=O)O)C5CC5)ccc4c3CC=C(C)C)CC2)c1` [Compound 372], the concentration for a half-maximal effect (EC50) is 100 to 500 nM and the “Efficacy (%)” value is given as “†† (150 ≥ Efficacy (%) > 100)”.

As to `COc1ccc(F)c(N2CCC(c3oc4cc([C@@H](CC(=O)O)C5CC5)ccc4c3C/C=C/C3CC3)CC2)c1` [Compound 373], the concentration giving a half-maximal response (EC50) is 10 to 100 nM and the “Efficacy (%)” value is given as “†† (150 ≥ Efficacy (%) > 100)”.

On to `COc1cccc(N2CCC(c3oc4cc([C@@H](CC(=O)O)C5CC5)ccc4c3CC=C(C)C)CC2)c1` [Compound 374], for which the EC50 is 10 to 100 nM and the “Efficacy (%)” value is given as “†† (150 ≥ Efficacy (%) > 100)”.

For `COc1cccc(N2CCC(c3oc4cc([C@@H](CC(=O)O)C5CC5)ccc4c3C/C=C/C3CC3)CC2)c1` [Compound 375], the EC50 lay within 100 to 500 nM and the “Efficacy (%)” value is on record as “†† (150 ≥ Efficacy (%) > 100)”.

Take `CC(C)=CCc1c(C2CCN(c3ccc4c(c3)OCO4)CC2)oc2cc([C@@H](CC(=O)O)C3CC3)ccc12` [Compound 376]: the concentration for a half-maximal effect (EC50) fell in the range of 10 to 100 nM and the “Efficacy (%)” value is given as “†† (150 ≥ Efficacy (%) > 100)”.

For `COc1cccc(N2CCC(c3oc4cc(C(CC(=O)O)C5CC5)ccc4c3C(=CCC(C)C)c3ccccc3)CC2)c1` (centres unmarked) [Compound 377], the EC50 lay in the range of 10 to 100 nM and the “Efficacy (%)” value is “†† (150 ≥ Efficacy (%) > 100)”.

With `COc1ccc(F)c(N2CCC(c3oc4cc(C(CC(=O)O)C5CC5)ccc4c3C3=CCCCC3)CC2)c1` (centres unmarked) [Compound 379], the EC50 is 100 to 500 nM and the “Efficacy (%)” value was “†† (150 ≥ Efficacy (%) > 100)”.

As to `COc1ccc(F)c(N2CCC(c3oc4cc(C(CC(=O)O)C5CC5)ccc4c3C3=CCC(C(C)(C)C)CC3)CC2)c1` (centres unmarked) [Compound 380], the EC50 is greater than 500 nM and the “Efficacy (%)” value is on record as “†† (150 ≥ Efficacy (%) > 100)”.

Regarding `COc1ccc(F)c(N2CCC(c3oc4cc(C(CC(=O)O)C5CC5)ccc4c3CC3=CCCC3)CC2)c1` (centres unmarked) [Compound 383], the EC50 lay within 100 to 500 nM and the “Efficacy (%)” value is on record as “††† (Efficacy (%) > 150)”.

For `CCCCC(C)c1c(C2CCN(c3cccc(OC)c3)CC2)oc2cc([C@@H](CC(=O)O)C3CC3)ccc12` (some centres unmarked) [Compound 384], the concentration giving a half-maximal response (EC50) lay in the range of 100 to 500 nM and the “Efficacy (%)” value is recorded as “†† (150 ≥ Efficacy (%) > 100)”.

`COc1cccc(N2CCC(c3oc4cc([C@@H](CC(=O)O)C5CC5)ccc4c3C(C)CCC(C)C)CC2)c1` (some centres unmarked) [Compound 385]: the concentration for a half-maximal effect (EC50) lay in the range of 10 to 100 nM and the “Efficacy (%)” value was “†† (150 ≥ Efficacy (%) > 100)”.

Consider `CCCCC(c1ccccc1)c1c(C2CCN(c3cccc(OC)c3)CC2)oc2cc([C@@H](CC(=O)O)C3CC3)ccc12` (some centres unmarked) [Compound 386], for which the EC50 was in the range of 10 to 100 nM and the “Efficacy (%)” value is “†† (150 ≥ Efficacy (%) > 100)”.

With `COc1cccc(N2CCC(c3oc4cc([C@@H](CC(=O)O)C5CC5)ccc4c3C(CCC(C)C)c3ccccc3)CC2)c1` (some centres unmarked) [Compound 387], the EC50 fell in the range of 10 to 100 nM and the “Efficacy (%)” value is “†† (150 ≥ Efficacy (%) > 100)”.

Consider `COc1ccc(F)c(N2CCC(c3oc4cc(C(CC(=O)O)C5CC5)ccc4c3CCC(C)(C)C)CC2)c1` (centres unmarked) [Compound 388], for which the EC50 was in the range of 100 to 500 nM and the “Efficacy (%)” value is listed as “†† (150 ≥ Efficacy (%) > 100)”.

Turning to `COc1ccc(F)c(N2CCC(c3oc4cc([C@@H](CC(=O)O)C5CC5)ccc4c3CCC(C)(C)C)CC2)c1` [Compound 389], the half-maximal effective concentration (EC50) fell in the range of 100 to 500 nM and the “Efficacy (%)” value is “†† (150 ≥ Efficacy (%) > 100)”.

On to `COc1ccc(F)c(N2CCC(c3oc4cc(C(CC(=O)O)C5CC5)ccc4c3CCC(C)(C)O)CC2)c1` (centres unmarked) [Compound 390], for which the 50% effective concentration (EC50) lay within 100 to 500 nM and the “Efficacy (%)” value was “†† (150 ≥ Efficacy (%) > 100)”.

As to `COc1ccc(F)c(N2CCC(c3oc4cc([C@@H](CC(=O)O)C5CC5)ccc4c3CCCC3CC3)CC2)c1` [Compound 391], the EC50 was in the range of 100 to 500 nM and the “Efficacy (%)” value is “†† (150 ≥ Efficacy (%) > 100)”.

Take `COc1ccc(F)c(N2CCC(c3oc4cc(C(CC(=O)O)C5CC5)ccc4c3CCOC(C)C)CC2)c1` (centres unmarked) [Compound 393]: the EC50 was 100 to 500 nM and the “Efficacy (%)” value is on record as “†† (150 ≥ Efficacy (%) > 100)”.

In the case of `COc1ccc(F)c(N2CCC(c3oc4cc(C(CC(=O)O)C5CC5)ccc4c3CC(C)OC)CC2)c1` (centres unmarked) [Compound 394], the EC50 was greater than 500 nM and the “Efficacy (%)” value is reported as “†† (150 ≥ Efficacy (%) > 100)”.

`COc1ccc(F)c(N2CCC(c3oc4cc(C(CC(=O)O)C5CC5)ccc4c3CC(C)=O)CC2)c1` (centres unmarked) [Compound 395]: the EC50 fell in the range of 100 to 500 nM and the “Efficacy (%)” value is “† (100 ≥ Efficacy (%) > 50)”.

For the molecule `COc1cccc(N2CCC(c3oc4cc([C@@H](CC(=O)O)C5CC5)ccc4c3COC(=O)C(C)(C)C)CC2)c1` [Compound 398], the EC50 was in the range of 100 to 500 nM and the “Efficacy (%)” value is given as “††† (Efficacy (%) > 150)”.
